According to patent publication US7214712B2, “Isophthalic acid derivatives as matrix metalloproteinase inhibitors” (Warner-Lambert Company, priority 2001, dated 2007):

How the values were obtained:
[1] = molecular target: T1, MMP-1FL (full length interstitial collagenase) (Homo sapiens, UniProt P03956); assay: Thiopeptolide substrate hydrolysis assay, MMP-1FL; assay type: biochemical; conditions: HEPES pH 7.0, 22° C.
T1 sequence (P03956 100-469): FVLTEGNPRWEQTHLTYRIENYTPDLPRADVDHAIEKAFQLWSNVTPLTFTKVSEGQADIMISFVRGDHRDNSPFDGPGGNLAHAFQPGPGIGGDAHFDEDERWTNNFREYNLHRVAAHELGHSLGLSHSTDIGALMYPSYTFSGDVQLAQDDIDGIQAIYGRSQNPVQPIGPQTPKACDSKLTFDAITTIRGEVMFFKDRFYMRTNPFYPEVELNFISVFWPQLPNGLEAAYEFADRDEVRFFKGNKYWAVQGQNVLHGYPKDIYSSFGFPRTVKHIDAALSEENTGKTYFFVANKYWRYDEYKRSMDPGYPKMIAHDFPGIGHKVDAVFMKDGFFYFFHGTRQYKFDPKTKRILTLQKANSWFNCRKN
Text: Several representative compounds have been evaluated for their ability to inhibit various matrix metalloproteinase enzymes.

[2] = molecular target: MMP-3CD (catalytic domain of stromelysin-1) (Homo sapiens, UniProt P08254); assay: Thiopeptolide substrate hydrolysis assay, MMP-3CD; assay type: biochemical; conditions: 50 mM MES pH 6.0
Description: It should be appreciated that the assay buffer used with MMP-3CD was 50 mM N-morpholinoethanesulfonate (“MES”) at pH 6.0 rather than the HEPES buffer at pH 7.0 described above.

[3] = molecular target: MMP-13CD (catalytic domain of collagenase-3) (Homo sapiens, UniProt P45452); assay: Thiopeptolide substrate hydrolysis assay, MMP-13CD; assay type: biochemical; conditions: HEPES pH 7.0, 22° C.
Description: The assays measure the amount by which a test compound reduces the hydrolysis of a thiopeptolide substrate caused by a matrix metalloproteinase enzyme.
Thiopeptolide substrates show virtually no decomposition or hydrolysis in the absence of a matrix metalloproteinase enzyme. A typical thiopeptolide substrate commonly utilized for assays is Ac-Pro-Leu-Gly-thioester-Leu-Leu-Gly-OEt. A 100-μL assay mixture will contain 50 mM of N-2-hydroxyethylpiperazine-N′-2-ethanesulfonic acid (“HEPES,” pH 7.0), 10 mM CaCl2, 100 μM thiopeptolide substrate, and 1 mM 5,5′-dithio-bis-(2-nitro-benzoic acid) (DTNB). […] Assays are carried out with and without matrix metalloproteinase inhibitor compounds, and the amount of hydrolysis is compared for a determination of inhibitory activity of the test compounds.

Sequence of MMP-3CD (catalytic domain of stromelysin-1) (P08254 100-272 limits assumed): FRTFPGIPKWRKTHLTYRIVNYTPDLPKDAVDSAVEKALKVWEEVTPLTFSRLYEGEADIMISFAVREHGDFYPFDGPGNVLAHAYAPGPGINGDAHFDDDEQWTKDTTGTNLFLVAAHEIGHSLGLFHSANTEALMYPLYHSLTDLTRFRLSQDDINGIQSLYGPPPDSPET

Row | melting point | IC50 [1] | IC50 [2] | IC50 [3] | Molecule
1 | 136 to 138 °C |  |  |  | O=C(NCc1ccc(Cl)cc1)c1cccc(C(=O)NCc2ccc(Cl)cc2)c1 [Example 10, N,N′-Bis-(4-chloro-benzyl)-isophthalamide]
2 | 81 to 82 °C |  |  |  | O=C(OCc1cccc(F)c1)c1cccc(C(=O)OCc2cccc(F)c2)c1 [Example 11, Isophthalic acid bis-(3-fluoro-benzyl) ester]
3 | 68 to 70 °C |  |  |  | COc1cccc(COC(=O)c2cccc(C(=O)OCc3cccc(OC)c3)c2)c1 [Example 13, Isophthalic acid bis-(3-methoxy-benzyl) ester]
4 | 128 to 130 °C |  |  |  | O=C(NCc1cccc(Cl)c1)c1cccc(C(=O)NCc2cccc(Cl)c2)c1 [Example 18, N,N′-Bis-(3-chloro-benzyl)-isophthalamide]
5 |  | > 100 µM | > 100 µM | 2.74 µM | N,N′-Bis-(4-methoxy-benzyl)-isophthalamide [Example 39]
6 |  | > 100 µM | > 100 µM | 0.28 µM | 4-Methoxy-N,N′-bis-(4-methoxy-benzyl)-isophthalamide [Example 24]

Continued, molecule first:

Row | Molecule | melting point | IC50 [1] | IC50 [2] | IC50 [3]
7 | COc1ccc(CNC(=O)c2cccc(C(=O)NCc3ccc(OC)cc3)c2)cc1 [Example 16, N,N′-Bis-(4-methoxy-benzyl)-isophthalamide] | 175 to 176 °C |  |  | 
8 | COc1ccc(COC(=O)c2cccc(C(=O)OCc3ccc(OC)cc3)c2)cc1 [Example 12, Isophthalic acid bis-(4-methoxy-benzyl) ester] | 90 to 92 °C |  |  | 
9 | O=C(OCc1ccc2nsnc2c1)c1cccc(C(=O)OCc2ccc3nsnc3c2)c1 [Example 3, Isophthalic acid di-(2,1,3-benzothiadiazol-5-yl)methyl ester] |  | > 100 µM | > 30 µM | 
10 | O=C(NCc1ccc2c(c1)OCO2)c1cccc(C(=O)NCc2ccc3c(c2)OCO3)c1 [Example 28, N,N′-Bis-1,3-benzodioxol-5-ylmethyl-isophthalamide] |  | > 100 µM |  | 
11 | O=C(NCc1cccc(F)c1)c1cccc(C(=O)NCc2cccc(F)c2)c1 [Example 17, N,N′-Bis-(3-fluoro-benzyl)-isophthalamide] | 138 to 140 °C |  |  | 
12 | O=C(NCc1ccc2c(c1)OCO2)c1cccc(C(=O)NCc2ccc3c(c2)OCO3)c1 [Example 19, N,N′-Bis-1,3-benzodioxol-5-ylmethyl-isophthalamide] |  | > 100 µM |  | 
13 | COc1ccc(C(=O)OCc2ccncc2)cc1C(=O)OCc1ccncc1 [Example 5, 4-Methoxy-isophthalic acid dipyridin-4-ylmethyl ester] |  | > 100 µM | > 100 µM | 0.255 µM
14 | COc1ccc(C(=O)OCc2ccc3nsnc3c2)cc1C(=O)OCc1ccc2nsnc2c1 [Example 69, 4-Methoxy-isophthalic acid di-2,1,3-benzothiadiazol-5-ylmethyl ester] |  | 30 µM |  | 
15 | CCOc1ccc(C(=O)NCc2cccc(OC)c2)cc1C(=O)NCc1cccc(OC)c1 [Example 64, 4-Ethoxy-N′1,N″3-bis-(3-methoxy-benzyl)-isophthalamide] |  | > 100 µM | > 100 µM | 
16 | O=C(OCc1ccc2c(c1)OCO2)c1cccc(C(=O)OCc2ccc3c(c2)OCO3)c1 [Example 14, Isophthalic acid bis-(1,3-benzodioxol-5-ylmethyl) ester] | 109 to 110 °C |  |  | 
17 | COc1cccc(CNC(=O)c2cccc(C(=O)NCc3cccc(OC)c3)c2)c1 [Example 30, N,N′-Bis-(3-methoxy-benzyl)-isophthalamide] |  | > 100 µM | > 100 µM | 
